{
  "source": "patent US20030212138A1",
  "about": "“Combinations of peroxisome proliferator-activated receptor-alpha agonists and cyclooxygenase-2 selective inhibitors and therapeutic uses therefor” (Pharmacia Corporation, priority 2002, published 2003)",
  "origin": "cited, not measured here",
  "test_system": "fibroblast growth factor-induced corneal angiogenesis",
  "settings": "rats; Masferrer et al. 1999",
  "data": [
    {"compound": "Cc1ccc(-c2cc(C(F)(F)F)nn2-c2ccc(S(N)(=O)=O)cc2)cc1", "note": "[Celecoxib®, 4-[5-(4-methylphenyl)-3-(trifluoromethyl)-1H-pyrazol-1-yl]benzenesulfonamide]", "values": [
      {"measurement": "inhibition of fibroblast growth factor-induced corneal angiogenesis", "value": "potent inhibition"}
    ]}
  ]
}
